This is an account of results in patent US8263401B2, “Adenylyl cyclase antibodies, compositions and uses thereof” (University of Medicine and Dentistry of New Jersey, priority 2005, dated 2012).

The subject of assay [1] is conscious AC5KO and WT mice. Nature of the assay: HR and arterial pressure in conscious mice (ECG, micromanometer catheter). As to conditions: for decrease in HR: Ach 0.01 μg/g i.v.; for increase in HR: atropine 1 μg/g i.v. It counts as in vivo, mouse. An excerpt:
In AC5KO and WT mice, four ECG wires (New England Electric Wire Corporation, Lisbon, N.H., USA) were placed subcutaneously, a silicone elastomer tubing (Cardiovascular Instrument Corp., Wakefield, Mass., USA) was inserted into the right external jugular vein and a 1.4 F micromanometer catheter (Millar Instruments, Inc., Houston, Tex., USA) was inserted into the lower abdominal aorta via the femoral artery as described previously with some modifications (Uechi, M., Asai, K., Osaka, M., Smith, A., Sato, N., Wagner, T. E., Ishikawa, Y., Hayakawa, H., Vatner, D. E., Shannon, R. P., et al. (1998), Circ. Res. 82:416-423). The ECG wires, the silicone elastomer tubing and the micromanometer catheter were tunneled subcutaneously to the back, externalized, and secured in a plastic cap. On the day of the study, each mouse was placed in the mouse holder, the jugular venous catheter was accessed and connected to a microliter syringe (Hamilton Co., Reno, Nev., USA), the 1.4 F micromanometer catheter was connected to a recorder (Dash 4u; Astro-Med, Inc., West Warwick, R.I., USA) and the ECG wires were connected to an ECG amplifier (Gould Inc., Cleveland, Ohio, USA). All experiments were recorded with animals in the conscious state. After at least 6 hours recovery from the implantation of the catheter, when a stable HR was achieved, the baseline ECG and arterial pressure (AP) were recorded for 5 min. Ach(0.05 μg/g) was then administered intravenously (i.v.), and the ECG and AP recording were repeated. A recovery period of 15 min was allowed for the HR and AP to return to baseline before administering the next drug. Baseline HR slowing was examined in response to phenylephrine (0.2 μg/g i.v.).

Assay [2] concerns ISO-stimulated AC activity in heart membranes. Nature of the assay: AC assay in heart membrane preparations. It counts as biochemical, mouse. As to conditions: carbachol 10 μM. The protocol:
Hearts were dissected from the mice and membrane preparations were prepared as described previously (Ishikawa, Y., Sorota, S., Kiuchi, K., Shannon, R. P., Komamura, K., Katsushika, S., Vatner, D. E., Vatner, S. F., and Homcy, C. J. (1994), J. Clin. Invest. 93:2224-2229.). Protein concentration was measured by the method of Bradford using bovine serum albumin as a standard (Bradford, M. M. (1976). Anal. Biochem. 72:248-254.). AC activity was measured as described previously (Kawabe, J., Iwami, G., Ebina, T., Ohno, S., Katada, T., Ueda, Y., Homcy, C. J., and Ishikawa, Y. (1994), J. Biol. Chem. 269:16554-16558). AC activity was linear within the incubation time up to 30 min. In order to harvest hearts for tissue cAMP content measurements, mice were allowed to acclimate to the surroundings in the laboratory for an hour before sacrifice. Freshly isolated hearts were briefly immersed in liquid nitrogen. […] The concentration of cAMP was determined with an RIA kit (PerkinElmer Life Sciences, Boston, Mass., USA).
Inventors then examined cAMP production in membranes from the hearts of AC5KO and WT at 6 months of age (FIG. 5A). The steady state AC activity was determined as the maximal capacity of cAMP production in the presence of ISO (100 μM ISO+100 μM GTP), GTPγS (100 μM) or forskolin (100 μM). […]

The test system of another assay is AC5KO and WT mice. Briefly: Echocardiography in anesthetized mice during i.v. ISO infusion, with co-administered Ach. The assay is classed as in vivo, mouse. On the procedure:
Adenylyl cyclase 5 knockout (AC5KO) mice (6.4±0.2 month old, n=6) and wild type (WT) mice (6.7±0.1 month old, n=6) of either sex from the same genetic background as the transgenic mice were used for the physiological studies. Measurements of LV ejection fraction (LVEF) were performed as described previously (Iwase, M., Uechi, M., Vatner, D. E., Asai, K., Shannon, R. P., Kudej, R. K., Wagner, T. E., Wight, D.C., Patrick, T. A., Ishikawa, Y., et al. (1997), Am. J. Physiol. 272:H585-589.). Briefly, after determination of body weight, mice were anesthetized with ketamine (0.065 mg/g), acepromazine (0.002 mg/g), and xylazine (0.013 mg/g) injected intraperitoneally and were allowed to breathe spontaneously. Echocardiography was performed using ultrasonography (Sequoia C256; Acuson Corporation, Mountain View, Calif., USA). A dynamically focused 15-MHz annular array transducer was applied from below, using a warmed saline bag as a standoff. M-mode echocardiographic measurements of the LV were performed at baseline and during intravenous infusion of ISO (0.005, 0.01, 0.02, and 0.04 μg/kg/min i.v. for 5 minutes each)(Abbott Laboratories Inc, North Chicago, Ill., USA) using an infusion pump (PHD 2000; Harvard Apparatus, Inc., Holliston, Mass., USA). The total amount of the infusion volume was <100 μL in each mouse. […]

In assay [3] the test system is WT, heterozygous and AC5KO mice. Nature of the assay: Rotor rod test before and after db-cAMP injection. The assay is classed as in vivo, mouse. The settings on record: for increase in time spent on the rod without falling: 30 minutes after db-cAMP injection; for rotor rod performance: 48 hours after injection. On the procedure: The animals were tested for motor function 30 minutes after i. p. administration of 10 mg/kg of db-cAMP. The test was repeated after 48 hours of drug administration when the drug effect was completely eliminated. Similarly, intracranial injection of db-cAMP was conducted. Before drug injection, the mice were anesthetized with ketamine. Injections of db-cAMP into the mouse brain were performed at the following coordinates: for injection into the striatum: 1.70 mm anterior to the bregma, 1.1 mm to the right of the midline, and 4.1 mm deep. Three micro-liters of drug solution was loaded into an internal cannula needle (C315×33) with cannula tubing connected to a Hamilton syringe mounted onto a microinjection pump (Harvard Apparatus, Dover, Mass.). The drug solutions were delivered at a rate of 0.5 μl/min. Normal saline was injected in a sham control.
The rotor rod test is the most commonly used method to evaluate the motor function in rodents^106 but other methods are also available^107 to reinforce the findings of the rotor rod test. Such tests include rearing test, spontaneous movement study and pole test. The first test examines the frequency of vertical movements of mice and the second examines that of horizontal movements. Thus, spontaneous activity was determined both horizontally (locomotion) and vertically (rearings). The last test, the pole test, examines the degree of bradykinesia. In this test, mice were placed head upward on the top of a rough-surfaced pole. The time until they turned downward (Tturn) and the time until they climbed down to the floor were measured (TLA). Mice were placed in a cage and their movements were videotaped for analysis. Thus, spontaneous movements as an index of motor function were evaluated. Most important, these tests were used to evaluate the recovery of motor function upon cAMP administration and/or adenovirus-mediated gene transfer of AC5 in additional studies. The preliminary data were obtained from littermates of AC5KO, and WT males.
The inventors examined whether the locomotor activity of the AC5KO mouse was impaired compared to a normal mouse. At a glance, the AC5KO mice appeared normal, i.e., they were not catatonic or rigid. […] Inventors analyzed them with a rotor rod test in which mice were put on a rotor rod as shown below. In this task, animals had to make continuous adjustment in balance and posture to remain upright on a rod. The time that mice spent on the accelerating rotor-rod without falling was measured. The rod increased from 3 rpm to 30 rpm during each 5-min trial. […] At the 5th trial, there was a small, but significant decrease in their performance in heterozygous mice.

Assay [4] deals with primary cultured striatal neurons. Nature of the assay: cAMP accumulation in primary cultured striatal neurons. The assay is classed as cell-based, mouse. The settings on record: neuronal cells from WT mice; forskolin 50 micro M, dopamine 100 micro M (FIG. 9). The protocol:
Reaction with various agonists in the presence of a phosphodiesterase inhibitor proceed for 10 minutes and are stopped by the addition of ice-cold 2.5% perchloric acid, followed by sonication and centrifugation. Pellets are dissolved in 0.1 N NaOH for protein measurements and the supernatants are subject to cAMP assay by radioimmunoassay after neutralization. To examine whether AC5 plays a major role in regulating cAMP production, receptor-stimulated cAMP production and its effect in the striatum was measured. The rationale for this study is as follows. Changes in cAMP signal upon receptor stimulation can be easily determined by measuring AC activity in intact neuronal cells because the striatal membrane preparations present a few problems. Determination of basal, GTPγS— and forskolin-stimulated AC activity may be readily done while receptor-regulated AC activity, both stimulatory and inhibitory, is not easy in the striatum. This is, at least partially, due to less abundant receptor expression and the disruption of the receptor/G protein/AC coupling during the process of membrane homogenization of the striatum. Therefore, the effect of receptor stimulation and its sequential changes in AC activity and further downstream events including the process of phosphorylation/dephosphorylation may be best examined using cultured cells or even the whole body. […]

For the compound `CC(=O)OCC[N+](C)(C)C` [Ach, acetylcholine], the “decrease in HR” value is 7.5% in assay [1] (conscious AC5KO) and 22% in assay [1] (conscious WT).
Regarding `C[N+](C)(C)CCOC(N)=O` [Carbachol], the “inhibition of ISO-stimulated AC activity” value in assay [2] (AC5KO heart membranes) is “did not inhibit”. For the same compound, in assay [2] (WT heart membranes), the “decrease of ISO-stimulated AC activity” value came out at 21±3.4%.
For the compound `CC(C)NCC(O)c1ccc(O)c(O)c1` (stereo not shown) [ISO], the “cardiac responses on LVEF and fractional shortening (FS)” value with AC5KO and WT mice is “attenuated”.
Turning to `CNC[C@H](O)c1cccc(O)c1` [Phenylephrine, phenylephrine], in assay [1] (AC5KO compared with WT, phenylephrine 0.2 μg/g i.v.), the “baroreflex mediated slowing of HR” value was “less”. Besides, the systolic arterial pressure entry in assay [1] (both WT and AC5KO, phenylephrine 0.2 μg/g i.v.) was “increased systolic arterial pressure significantly”.
In the case of `CN1[C@@H]2CC[C@H]1C[C@@H](OC(=O)C(CO)c1ccccc1)C2` (stereo partly shown) [atropine], the results for the “increase in HR” value in assay [1] (AC5KO) and in assay [1] (WT) were 19±7.5 beats/min and 102±22.2 beats/min, respectively.
`CCCC(=O)Nc1ncnc2c1ncn2[C@@H]1O[C@@H]2COP(=O)(O)O[C@H]2[C@H]1OC(=O)CCC` [db-cAMP]: the “increase in time spent on the rod without falling” value is listed as “approximately two-fold” in assay [3] (AC5KO), 30% in assay [3] (WT) and 25% in assay [3] (heterozygous). Further, the rotor rod performance entry is “dropped to the basal level” in assay [3] (AC5KO), “remained similar” in assay [3] (WT) and “remained similar” in assay [3] (heterozygous).
For `NCCc1ccc(O)c(O)c1` [dopamine], the “levels of cAMP compared to untreated cells” value in assay [4] was “effective at increasing the levels of cAMP significantly”.
